Test results from patent US20240150290A1, “HETEROCYCLIC P2Y14 RECEPTOR ANTAGONISTS” (priority 2021, published 2024).
≈ marks a conversion by molar mass, not a printed value. Where two headings read alike, the source gives them in different places.

Assays:
hP2Y14R = target: T1, hP2Y14R (Homo sapiens, UniProt Q15391); assay: Inhibition of fluorescent antagonist binding in whole hP2Y14R-expressing CHO cells (flow cytometry)
T1 construct: expressed in transfected cells; host or cells: CHO cells
T1 sequence (Q15391 1-338): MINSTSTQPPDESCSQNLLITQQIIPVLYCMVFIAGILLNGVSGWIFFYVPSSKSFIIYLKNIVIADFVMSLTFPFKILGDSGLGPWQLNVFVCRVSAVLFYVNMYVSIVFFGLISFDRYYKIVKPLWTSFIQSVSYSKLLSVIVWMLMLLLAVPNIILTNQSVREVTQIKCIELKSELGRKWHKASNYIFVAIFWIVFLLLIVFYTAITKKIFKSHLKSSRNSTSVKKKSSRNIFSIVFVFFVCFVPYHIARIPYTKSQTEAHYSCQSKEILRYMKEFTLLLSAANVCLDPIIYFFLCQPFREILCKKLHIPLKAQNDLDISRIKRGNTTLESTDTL

[1] = Aqueous solubility, pION method
[2] = HPLC-based lipophilicity (Log D7.4); details: for chromatographic logD: pH 7.4; for Log D7.4: HPLC-based lipophilicity
[3] = Table 2, whole hP2Y14R-CHO cells, 20 nM fluorescent antagonist 3, mean+SEM, n = 3-6, read-out: IC50
[4] = Table 6, fluorescent hP2Y14R antagonist (3), read-out: hP2Y14R, IC50

| Compound | IC50 (hP2Y14R; [3]) | Solubility (ug/mL) pH 4 [1] | Solubility (ug/mL) pH 7.4 [1] | chromatographic logD [2] | further results |
| --- | --- | --- | --- | --- | --- |
| CC1CNCCC1c1ccc(-c2cc(C(=O)O)cc3cc(-c4ccc(C(F)(F)F)cc4)ccc23)cc1 (mixture of isomers) [Compound 106, 4-(4-(3-Methylpiperidin-4-yl)phenyl)-7-(4-(trifluoromethyl)phenyl)-2-naphthoic acid] | 20.9 ± 3.6 nM | 1.36 ± 0.21 ug/mL | 0.03 ± 0.02 ug/mL | 2.79 ± 0.09 |  |
| O=C(O)c1cc(-c2ccc(C3CCNC3)cc2)c2ccc(-c3ccc(C(F)(F)F)cc3)cc2c1 (racemic) [Compound 105, 4-(4-(Pyrrolidin-3-yl)phenyl)-7-(4-(trifluoromethyl)phenyl)-2-naphthoic acid] |  |  |  | 1.89 ± 0.07 |  |
| N[C@@H]1C[C@H](C(=O)O)C[C@H]1c1ccc(-c2cc(C(=O)O)cc3cc(-c4ccc(C(F)(F)F)cc4)ccc23)cc1 [Compound 140, 4-(4-((1S,2R,4R)-2-Amino-4-carboxycyclopentyl)phenyl)-7-(4-(trifluoromethyl)phenyl)-2-naphthoic acid] | 165 ± 51 nM | 0.34 ± 0.07 ug/mL | 3.92 ± 0.10 ug/mL |  | Log D7.4 [2]: −0.478 ± 0.050 |
| CC1CC(c2ccc(-c3cc(C(=O)O)cc4cc(-c5ccc(C(F)(F)F)cc5)ccc34)cc2)CCN1 (centres unmarked) [Compound 107, 4-(4-(2-Methylpiperidin-4-yl)phenyl)-7-(4-(trifluoromethyl)phenyl)-2-naphthoic acid] | 17.8 ± 2 nM | 0.31 ± 0.04 ug/mL | 0.16 ± 0.03 ug/mL | 2.05 ± 0.11 |  |
| O=C(O)c1cc(-c2ccc([C@@H]3CCN[C@H]4C[C@H]43)cc2)c2ccc(-c3ccc(C(F)(F)F)cc3)cc2c1 (racemic) [Compound 110, rac-4-(4-((1S,5R,6S)-2-Azabicyclo[4.1.0]heptan-5-yl)phenyl)-7-(4-(trifluoromethyl)phenyl)-2-naphthoic acid] |  |  |  | 2.59 ± 0.2 | IC50 (hP2Y14R): 42.4 ± 11.7 nM; solubility ([1]; pH 4, aqueous buffer): 0.1 ± 0.03 µg/mL (≈ 0.205 µM); solubility ([1]; pH 7.4, aqueous buffer): 0.51 ± 0.23 µg/mL (≈ 1.05 µM) |
| O=C(O)c1cc(-c2ccc(C3=CC4CCC(C3)N4)cc2)c2ccc(-c3ccc(C(F)(F)F)cc3)cc2c1 (centres unmarked) [Compound 128, 4-(4-(8-Azabicyclo[3.2.1]oct-2-en-3-yl)phenyl)-7-(4-(trifluoromethyl)phenyl)-2-naphthoic acid] |  | 2.36 ± 0.01 ug/mL | 0.35 ± 0.04 ug/mL | 2.33 ± 0.04 |  |
| O=C(O)c1cc(-c2ccc(C34CCNCC3C4(F)F)cc2)c2ccc(-c3ccc(C(F)(F)F)cc3)cc2c1 (centres unmarked) [Compound 109, 4-(4-(7,7-Difluoro-3-azabicyclo[4.1.0]heptan-6-yl)phenyl)-7-(4-(trifluoromethyl)phenyl)-2-naphthoic acid] | 211 ± 36 nM | 1.13 ± 0.34 ug/mL | 0.25 ± 0.01 ug/mL | 2.71 ± 0.33 |  |
| N[C@@H]1C[C@H](CO)C[C@H]1c1ccc(-c2cc(C(=O)O)cc3cc(-c4ccc(C(F)(F)F)cc4)ccc23)cc1 [Compound 136, 4-(4-((1S,2R,4R)-2-Amino-4-(hydroxymethyl)cyclopentyl)phenyl)-7-(4-(trifluoromethyl)phenyl)-2-naphthoic acid] | 100 ± 19 nM | 3.74 ± 0.09 ug/mL | 0.93 ± 0.20 ug/mL | 1.06 ± 0.05 |  |
| O=C(O)c1cc(-c2ccc([C@H]3C[C@H]4C[C@@H]3CN4)cc2)c2ccc(-c3ccc(C(F)(F)F)cc3)cc2c1 (racemic) [Compound 112, rac-4-(4-((1S,4S,5S)-2-Azabicyclo[2.2.1]heptan-5-yl)phenyl)-7-(4-(trifluoromethyl)phenyl)-2-naphthoic acid] |  |  |  | 1.95 ± 0.01 | IC50 (hP2Y14R): 5.9 ± 0.7 nM; solubility ([1]; pH 7.4, aqueous buffer): 0.47 ± 0.06 µg/mL (≈ 0.964 µM) |
| O=C(O)c1cc(-c2ccc([C@H]3C[C@@H]4CN[C@H]3C4)cc2)c2ccc(-c3ccc(C(F)(F)F)cc3)cc2c1 [Compound 117, 4-(4-((1S,4S,6R)-2-Azabicyclo[2.2.1]heptan-6-yl)phenyl)-7-(4-(trifluoromethyl)phenyl)-2-naphthoic acid] |  |  |  | 2.11 ± 0.06 | IC50 (hP2Y14R; [4]): 25.9 ± 7.6 nM |
| O=C(O)c1cc(-c2ccc(C3(O)C4CCC3CN(Cc3ccccc3)C4)cc2)c2ccc(-c3ccc(C(F)(F)F)cc3)cc2c1 (mixture of isomers) [Compound 130, 4-(4-((1R,5S,8r)-3-Benzyl-8-hydroxy-3-azabicyclo[3.2.1]octan-8-yl)phenyl)-7-(4-(trifluoromethyl)phenyl)-2-naphthoic acid] |  |  |  | 3.26 ± 0.01 |  |
| O=C(O)c1cc(-c2ccc([C@@]3(O)C[C@H]4CC[C@@H]3CN4)cc2)c2ccc(-c3ccc(C(F)(F)F)cc3)cc2c1 [Compound 125b] |  | 1.55 ± 0.11 ug/mL | 0.74 ± 0.06 ug/mL |  |  |
| CN1C[C@H]2CC[C@@H](C1)[C@]2(O)c1ccc(-c2cc(C(=O)O)cc3cc(-c4ccc(C(F)(F)F)cc4)ccc23)cc1 [Compound 132, 4-(4-((1R,5S,8r)-8-Hydroxy-3-methyl-3-azabicyclo[3.2.1]octan-8-yl)phenyl)-7-(4-(trifluoromethyl)phenyl)-2-naphthoic acid] |  |  |  | 1.37 ± 0.02 | IC50 (hP2Y14R): 44.6 ± 1.7 nM; solubility ([1]; pH 4, aqueous buffer): 1.81 ± 0.05 µg/mL (≈ 3.4 µM); solubility ([1]; pH 7.4, aqueous buffer): 0.88 ± 0.09 µg/mL (≈ 1.66 µM) |
| CC(=O)N1C[C@H]2C[C@@H]1C[C@@H]2c1ccc(-c2cc(C(=O)O)cc3cc(-c4ccc(C(F)(F)F)cc4)ccc23)cc1 (racemic) [Compound 113, rac-4-(4-((1S,4S,5S)-2-Acetyl-2-azabicyclo[2.2.1]heptan-5-yl)phenyl)-7-(4-(trifluoromethyl)phenyl)-2-naphthoic acid] | 20.4 ± 2.4 nM |  |  | 0.921 ± 0.034 | solubility ([1]; pH 4, aqueous buffer): 0.13 ± 0.04 µg/mL (≈ 0.245 µM); solubility ([1]; pH 7.4, aqueous buffer): 2.53 ± 0.43 µg/mL (≈ 4.78 µM) |
| O=C(O)c1cc(-c2ccc([C@]3(O)C[C@H]4CC[C@@H]3CN4)cc2)c2ccc(-c3ccc(C(F)(F)F)cc3)cc2c1 [Compound 125a] |  | 2.66 ± 0.29 ug/mL | 2.19 ± 0.10 ug/mL |  | Log D7.4 [2]: 0.74 ± 0.05 |
| O=C(O)c1cc(-c2ccc(C3CC4CCC3CN4)cc2)c2ccc(-c3ccc(C(F)(F)F)cc3)cc2c1 (racemic) [Compound 126] |  | 0.80 ± 0.05 ug/mL | 0.49 ± 0.06 ug/mL | 1.74 ± 0.02 |  |
| O=C(O)c1cc(-c2ccc([C@]3(O)C[C@H]4CC[C@@H](C3)N4)cc2)c2ccc(-c3ccc(C(F)(F)F)cc3)cc2c1 [Compound 127, 4-(4-((1R,3r,5S)-3-Hydroxy-8-azabicyclo[3.2.1]octan-3-yl)phenyl)-7-(4-(trifluoromethyl)phenyl)-2-naphthoic acid] |  |  |  | 1.16 ± 0.08 |  |
| N[C@H]1C[C@@H](CO)C[C@@H]1c1ccc(-c2cc(C(=O)O)cc3cc(-c4ccc(C(F)(F)F)cc4)ccc23)cc1 [Compound 137, 4-(4-((1R,2S,4S)-2-Amino-4-(hydroxymethyl)cyclopentyl)phenyl)-7-(4-(trifluoromethyl)phenyl)-2-naphthoic acid] |  |  |  |  | IC50 (hP2Y14R; [4]): 125 ± 45 nM |
| O=C(O)c1cc(-c2ccc(C3(O)CC4(CNC4)C3)cc2)c2ccc(-c3ccc(C(F)(F)F)cc3)cc2c1 [Compound 408, 4-(4-(6-Hydroxy-2-azaspiro[3.3]heptan-6-yl)phenyl)-7-(4-(trifluoromethyl)phenyl)-2-naphthoic acid] |  |  |  |  | IC50 (hP2Y14R; Example 5 table, whole cell fluorescent binding assay, read-out: IC50): 20.8 ± 5.6 nM |
